Data published in patent US12303498B2, “ALK5 inhibitors as skeletal muscle hypertrophy inducers” (CYTOO, priority 2018, dated 2025).

Experiments:
[1] = tested on: Donor Z (DMD donor) myotubes; test: Hypertrophy assay, combinations ALK5 inhibitor and glucocorticoid; type: cell-based, human; settings: 4 days of treatment, prednisolone 10 nM, RepSox or GW788388 300 nM, alone or combined
[2] = tested on: Human primary myoblasts (healthy donors 3, 1 and 5); test: MyoScreen hypertrophy assay on myotubes from healthy donors; type: cell-based; settings: for EC50: Homo sapiens, Myoblast, read-out: EC50; for EC50 / % Activity: second dose response assay
Protocol: (§1) Healthy donor primary skeletal cells (Donor 1, Donor 3 and Donor 5) were Clonetics™ Human Skeletal Muscle Myoblasts (HSMM). In addition, cells from three DMD (Duchenne muscular dystrophy) donors (Donor Z, W and D1) and from a healthy donor (Donor A) were sourced.
(§2) Hypertrophy and Atrophy Rescue assays were performed using an in vitro fully automated human myotube model called MyoScreen™ (Cytoo, France). This model relies on a tight control of the microenvironment that guides the differentiation of human primary myoblasts. Myotubes formed on MyoScreen™ micropatterns present a high level of maturation together with a highly standardized morphology.
(§3) Human primary myoblasts from donors were seeded in MyoScreen™ micropatterned 96-well plates (Cytoo, France), let them adhere for 24 h in growth medium, then run the differentiation in a low horse serum medium for at least 5 days.
(§4) At Day 0, MyoScreen™ plates (Cytoo, France) containing micropatterns were pre-filled with 200 μl/well of growth medium and stored in the incubator at 37° C. Human primary myoblasts were detached from the flasks, count, and seeded into the plates with 15 000 cells per well in 100 μl of growth medium.
(§5) At Day 1, the growth medium was changed for a differentiation medium, 300 μl/well (DMEM with 0.1% horse serum) in which myoblasts started differentiating and forming myotubes.
(§6) At Day 2, the differentiation medium was changed. Then candidate compounds were diluted with differentiation medium and transferred into the plate. The final concentration of DMSO should be not higher than 0.1%. At least 6 wells were treated with the vehicle as a basal control, and 6 wells were treated with IGF-1 at 100 ng/ml as positive hypertrophy control.
(§7) At Day 6, cells were fixed with formalin 5% for 30 min at room temperature, then permeabilized with Triton X-100 at 0.1% in PBS for 15 min, and blocked with PBS+BSA 1% for 20 minutes. Myotubes were incubated with first antibody against Troponin T in blocking buffer for 1 h30, washed three times with PBS, incubated with secondary antibody and Hoescht ( 1/10000) for 1 h30, and washed three times with PBS.
(§8) Images were acquired at 10× magnification with an Operetta High Content Imaging System. Image processing and analysis were performed with dedicated algorithms developed on the Acapella High Content Imaging Software (Perkin Elmer) by CYTOO. Eleven fields per well were acquired.
First, segmentation of myotubes and nuclei were done using respectively the Troponin T staining intensity and the Hoechst staining. […] The threshold of segmentation was set-up in order to avoid detecting the background noise and eliminate aberrant small myotube structures.
(§9) Then, an image clean-up step was performed on the Troponin T images in order to remove myotubes that touch the border of the image. The final valid myotubes were used to extract myotube morphology parameters including the myotube width and area, and the number of nuclei per myotube.
Nuclei Count, Fusion Index, Mean myotube Area and Number of nuclei per myotube have been validated as relevant and sensitive readouts of myotube differentiation as well as atrophic and hypertrophic induction.
A primary screening was run to identify hypertrophy compounds that increase the myotube differentiation and size. Candidate compounds were tested at 10 μM in monoplicate on Donor 3 cells.
A retest was run, by cherry picking (same compound batch as primary screening): each hit was tested in the same conditions as in the Primary Screening (Donor 3, 10 μM) in six well replicates.

[3] = tested on: cells from DMD donors (Donor Z, W and D1); test: MyoScreen hypertrophy assay on myotubes from DMD donors; type: cell-based, human; settings: fusion index (compound)*100/basal control; for Donor W (% Activity): DMD Donor W; for Donor Z (% Activity): DMD Donor Z
Protocol: as §1, §2, §3, §4, §5, §6, §7, §8
(§10) First, segmentation of myotubes and nuclei were done using respectively the Troponin T staining intensity and the Hoechst staining. One to two myotubes per micropattern were usually identified (a myotube is a troponin T staining area that includes at least 2 nuclei). The threshold of segmentation was set-up in order to avoid detecting the background noise and eliminate aberrant small myotube structures. At the end of this first step, specific readouts were calculated in the whole well, like the nuclei count and the fusion index (percentage of nuclei included in troponin T staining) Usually around 50 to 60 myotubes were detected per well in a control condition.
as §9

[4] = tested on: Myotubes from the healthy donor 3 atrophied by TNF-α, IL-1β, Myostatin, TGF-β or dexamethasone; test: Atrophy rescue assay (MyoScreen); type: cell-based, human; parameters: key: +++: total rescue; ++: partial rescue; +: low rescue
Protocol: as §2, §3, §4, §5, §6
For Atrophy Rescue assay, one hour after candidate compound addition, atrophy inducers were added at the following final concentration: 150 ng/mL of myostatin, 25 ng/mL of IL-1β, 2 ng/mL of TNF-α, 0.5 ng/mL of TGF-β and 100 μM of dexamethasone.
as §7, §8, §10, §9
Atrophy Rescue assays were performed in triplicate in the presence of atrophy inducers, i.e. TNF-α, IL-1β, Myostatin, TGF-β and dexamethasone.
Atrophy rescue assays was performed for RepSox. Myotubes from the healthy donor 3 were atrophied using different inducers: TNF-α, IL-1β, Myostatin, TGF-β and dexamethasone.

[5] = tested on: AChR clusters in MyoScreen myotubes; test: Acetylcholine receptor clustering assay; type: cell-based, human; settings: 8 days of differentiation including 7 days of drug treatment; vs control myotubes
Protocol: The MyoScreen™ protocol was performed as described in the Hypertrophy and Atrophy rescue assay described in Example 1 but was stopped at Day 9 instead of Day 6. At the end of the assay, AchR were immunostained using a specific antibody in addition to Troponin T and nuclei. Images were acquired at ×20 with an Operetta High Content Imaging System from Perkin Elmer. Image processing and analyses were performed with a dedicated algorithm developed on the Acapella High Content Imaging Software (Perkin Elmer). Specific readouts were calculated in each well: nuclei count and myotube fusion index, number of AchR, AchR mean area, AchR total area normalized by the myotube total area.
Remarkably, when labeled with a specific anti-AChR antibody, MyoScreen myotubes at 6 days post-differentiation display AChR clusters punctuated along the sarcolemma membrane in the middle of the myotube fibre and in distinct regions at the ends of myotubes. To develop an automated AChR cluster assay, an AChR detection routine was developed that was sensitive and robust enough to analyze aggregate number and size clusters in images using the Operetta/Acapella system.

ACh-stimulated myotubes = test: Calcium flux assay after ACh stimulation; type: cell-based, human; settings: 20 μM ACh stimulation; myotubes differentiated 8 days, 7 days with compound
Protocol: Cells were then incubated for 1 h with 2 μM Fluo-4 AM (F14201-Invitrogen) in an incubator (37° C., 5% CO2). After washing to remove unloaded dye, myotube responses to 20 μM ACh (A6625-Sigma-Aldrich), were videoimaged. Stream acquisitions were set at 1 sec intervals and one field of view was acquired per well. Images were processed and analyzed automatically using a dedicated software developed in-house integrating the open-source ImageJ framework. The image analysis tool segments the myotubes in images acquired in the same well. The Fluo-4 total fluorescence intensity was measured inside each myotube and corrected for background. The total intensity was normalized to the myotube area to obtain the mean fluorescence intensity readout.

[6] = tested on: myotubes stimulated with 100 μM ACh; test: Contractile activity assay; type: cell-based, human; settings: 5 days of differentiation including 4 days (96 h) treatment, RepSox 2 μM
Protocol: Cells were washed with calcium buffer as above. Myotube contraction was induced by addition of 100 μM ACh for 3 mins after which myotubes were fixed and immunostained with troponin T antibody. Automated acquisition was performed on the Operetta platform with a x10/0.3 NA objective. Detaching myotubes were automatically detected and quantified using Acapella, based on the detection of high intensity regions within the edges of segmented myotubes that mark the spots where the myotubes detached.

Compound: C[C@]12C=CC(=O)C=C1CC[C@@H]1[C@@H]2[C@@H](O)C[C@@]2(C)[C@H]1CC[C@]2(O)C(=O)CO [Prednisolone, prednisolone]
- increase in Fusion index [1]: 25%
- increase in Myotube mean area [1]: does not enhance significantly

Compound: Cc1cccc(-c2nc(C(C)(C)C)[nH]c2-c2ccc3nccnc3c2)n1 [SB 525334]
- EC50 ([2]; healthy Donor 3): 3 nM
- % Activity ([2]; healthy Donor 3): 142%

Compound: O=C(NC1CCOCC1)c1ccc(-c2cc(-c3c[nH]nc3-c3ccccn3)ccn2)cc1 [GW 788388]
- EC50 ([2]; healthy Donor 3): 88 nM
- % Activity ([2]; healthy Donor 3): 130%
- Donor W (% Activity) [3]: 118%
- Donor Z (% Activity) [3]: 196%

Compound: NC(=O)c1ccc(-c2nc(-c3ccccn3)c(-c3ccc4c(c3)OCCO4)[nH]2)cc1 [D 4476]
- EC50 ([2]; healthy Donor 3): < 1 nM
- % Activity ([2]; healthy Donor 3): 128%

Compound: IGF-1: IGF-1 at 100 ng/ml as positive hypertrophy control
- atrophy rescue, IL-1 ([4]; atrophy inducer IL-1β 25 ng/mL): +++
- atrophy rescue, TGF-β ([4]; atrophy inducer TGF-β 0.5 ng/mL): ++
- atrophy rescue, TNF-alpha ([4]; atrophy inducer TNF-α 2 ng/mL): +++
- atrophy rescue, dexamethasone ([4]; atrophy inducer dexamethasone 100 μM): +++
- atrophy rescue, Myostatin ([4]; atrophy inducer myostatin 150 ng/mL): +++
- Donor 1 % Activity ([2]; first dose response assay, healthy Donor 1): 150%
- Donor 3 % Activity ([2]; first dose response assay, healthy Donor 3): 178%
- Donor 5 % Activity ([2]; first dose response assay, healthy Donor 5): 185%
- Primary screening (% Activity) ([2]; healthy Donor 3, 10 μM, monoplicate (IGF-1 100 ng/ml), % Activity = Myotube fusion index (compound)*100/Myotube Fusion index (basal control)): 210%
- Retest (% Activity) ([2]; healthy Donor 3, 10 μM, six well replicates (IGF-1 100 ng/ml), fusion index vs basal control): 190%
- % Activity ([2]; healthy Donor 3): 178%
- total AChR area increase [5]: no effect
- increase in [Ca2+]i peak amplitude compared to control myotubes (ACh-stimulated myotubes): no effect
- Donor D1 (% Activity) ([3]; DMD Donor D1): 163%
- Donor W (% Activity) [3]: 100%
- Donor Z (% Activity) [3]: 143%
- active contractile force (percentage of myotubes that exhibit strong contractions) [6]: 67±5%
- increase in Fusion index [1]: 160%
- increase in Myotube mean area [1]: 54%

Compound: Cc1cccc(-c2n[nH]cc2-c2ccc(F)c(-c3cnn(CCO)c3)c2)n1 [R268712]
- EC50 ([2]; healthy Donor 3): 1 nM
- % Activity ([2]; healthy Donor 3): 132%

Compound: c1ccc(-c2n[nH]cc2-c2ccnc3ccccc23)nc1 [LY 364947]
- EC50 ([2]; healthy Donor 3): 25 nM

Compound: Fc1ccc(Cl)cc1-c1nc(Nc2ccncc2)c2nccnc2n1 [SD208]
- EC50 ([2]; healthy Donor 3): 65 nM
- % Activity ([2]; healthy Donor 3): 138%

Compound: Cc1cccc(-c2[nH]c(C(C)(C)C)nc2-c2ccc3c(c2)OCO3)n1 [SB 505124]
- EC50 ([2]; healthy Donor 3): < 1 nM
- % Activity ([2]; healthy Donor 3): 136%

Compound: Cc1cccc(-c2nn(C(=S)Nc3ccccc3)cc2-c2ccnc3ccccc23)n1 [A 83-01]
- EC50 ([2]; healthy Donor 3): 10 nM
- % Activity ([2]; healthy Donor 3): 127%
